Measurements from ChEMBL document CHEMBL3407488, “Synthesis and L-type calcium channel blocking activity of new chiral oxadiazolothiazinones” (Eur J Med Chem, 2015).

Assays:
[1] = organism: Cavia porcellus; assay: Antagonist activity at Cav1.2a in K+-depolarized guinea pig aortic strips assessed as inhibition of calcium-induced contraction at 5 x 10^-5 M relative to control; format: tissue-based; set-up: scale not given: the % may be the effect or the level left; conditions: Aorta
[2] = system: Cav1.2b; assay: Antagonist activity at Cav1.2b in K+-depolarized guinea pig ileum longitudinal smooth muscle assessed as inhibition of calcium-induced contraction at 5 x 10^-5 M relative to control; format: tissue-based, Cavia porcellus; conditions: read-out: Activity
[3] = system: Left cardiac atrium; assay: Negative ionotropic activity in guinea pig left atrium assessed as decrease in developed tension driven at 1 Hz at 5 x 10^-6 M relative to control; format: functional, Cavia porcellus; set-up: scale not given: the % may be the effect or the level left
[4] = Antagonist activity at Cav1.2b in K+-depolarized guinea pig ileum longitudinal smooth muscle assessed as inhibition of calcium-induced contraction; format: tissue-based; conditions: Cavia porcellus
[5] = system: Right cardiac atrium; assay: Negative chronotropic activity in guinea pig […] atrium assessed as decrease in atrial rate on spontaneous beating at 5 x 10^-6 M relative to control; format: functional, Cavia porcellus; set-up: scale not given: the % may be the effect or the level left
[6] = system: Cav1.2b; assay: Antagonist activity at Cav1.2b in K+-depolarized guinea pig ileum longitudinal smooth muscle assessed as inhibition of calcium-induced contraction at 10^-4 M relative to control; format: tissue-based, Cavia porcellus; conditions: read-out: Activity
[7] = system: Left cardiac atrium; assay: Negative ionotropic activity in guinea pig left atrium assessed as decrease in developed tension driven at 1 Hz; format: functional, tissue-based; conditions: Cavia porcellus
[8] = system: Left cardiac atrium; assay: Negative ionotropic activity in guinea pig left atrium assessed as decrease in developed tension driven at 1 Hz at 10^-6 M relative to control; format: functional, Cavia porcellus; set-up: scale not given: the % may be the effect or the level left
[9] = organism: Cavia porcellus; assay: Antagonist activity at Cav1.2a in K+-depolarized guinea pig aortic strips assessed as inhibition of calcium-induced contraction at 10^-4 M relative to control; format: tissue-based; set-up: scale not given: the % may be the effect or the level left; conditions: Aorta
[10] = system: Right cardiac atrium; assay: Negative chronotropic activity in guinea pig […] atrium assessed as decrease in atrial rate on spontaneous beating at 10^-4 M relative to control; format: functional, Cavia porcellus; set-up: scale not given: the % may be the effect or the level left
[11] = system: Left cardiac atrium; assay: Ratio of diltiazem EC50 to compound EC50 for negative ionotropic activity in guinea pig left atrium assessed as decrease in developed tension driven at 1 Hz; format: functional, Cavia porcellus
[12] = system: Right cardiac atrium; assay: Negative chronotropic activity in guinea pig […] atrium assessed as decrease in atrial rate on spontaneous beating at 5 x 10^-5 M relative to control; format: functional, Cavia porcellus; set-up: scale not given: the % may be the effect or the level left
[13] = system: Left cardiac atrium; assay: Negative ionotropic activity in guinea pig left atrium assessed as decrease in developed tension driven at 1 Hz at 10^-5 M relative to control; format: functional, Cavia porcellus; set-up: scale not given: the % may be the effect or the level left
[14] = Antagonist activity at Cav1.2a in K+-depolarized guinea pig aortic strips assessed as inhibition of calcium-induced contraction; format: tissue-based; conditions: Cavia porcellus, Aorta
[15] = system: Cav1.2b; assay: Antagonist activity at Cav1.2b in K+-depolarized guinea pig ileum longitudinal smooth muscle assessed as inhibition of calcium-induced contraction at 10^-6 M relative to control; format: tissue-based, Cavia porcellus; conditions: read-out: Activity
[16] = system: Right cardiac atrium; assay: Negative chronotropic activity in guinea pig […] atrium assessed as decrease in atrial rate on spontaneous beating; format: functional; conditions: Cavia porcellus
[17] = system: Right cardiac atrium; assay: Negative chronotropic activity in guinea pig […] atrium assessed as decrease in atrial rate on spontaneous beating at 10^-6 M relative to control; format: functional, Cavia porcellus; set-up: scale not given: the % may be the effect or the level left
[18] = Selectivity ratio of IC50 for Cav1.2a in K+-depolarized guinea pig aortic strips to IC50 for Cav1.2b in K+-depolarized guinea pig ileum longitudinal smooth muscle; set-up: species or system Cavia porcellus, Muscle tissue
[19] = Selectivity ratio of IC50 for Cav1.2b in K+-depolarized guinea pig ileum longitudinal smooth muscle to IC50 for Cav1.2a in K+-depolarized guinea pig aortic strips; set-up: species or system Cavia porcellus, Muscle tissue
[20] = system: Right cardiac atrium; assay: Negative chronotropic activity in guinea pig […] atrium assessed as decrease in atrial rate on spontaneous beating at 10^-5 M relative to control; format: functional, Cavia porcellus; set-up: scale not given: the % may be the effect or the level left
[21] = Selectivity ratio of IC50 for Cav1.2b in K+-depolarized guinea pig ileum longitudinal smooth muscle to EC50 for negative ionotropic activity in guinea pig left atrium; set-up: species or system Cavia porcellus, Muscle tissue
[22] = system: Right cardiac atrium; assay: Negative chronotropic activity in guinea pig […] atrium assessed as decrease in atrial rate on spontaneous beating at 5 x 10^-8 M relative to control; format: functional, Cavia porcellus; set-up: scale not given: the % may be the effect or the level left
[23] = system: Left cardiac atrium; assay: Negative ionotropic activity in guinea pig left atrium assessed as decrease in developed tension driven at 1 Hz at 5 x 10^-7 M relative to control; format: functional, Cavia porcellus; set-up: scale not given: the % may be the effect or the level left
[24] = organism: Cavia porcellus; assay: Antagonist activity at Cav1.2a in K+-depolarized guinea pig aortic strips assessed as inhibition of calcium-induced contraction at 5 x 10^-8 M relative to control; format: tissue-based; set-up: scale not given: the % may be the effect or the level left; conditions: Aorta
[25] = system: Cav1.2b; assay: Antagonist activity at Cav1.2b in K+-depolarized guinea pig ileum longitudinal smooth muscle assessed as inhibition of calcium-induced contraction at 5 x 10^-6 M relative to control; format: tissue-based, Cavia porcellus; conditions: read-out: Activity
[26] = system: Right cardiac atrium; assay: Negative chronotropic activity in guinea pig […] atrium assessed as decrease in atrial rate on spontaneous beating at 5 x 10^-7 M relative to control; format: functional, Cavia porcellus; set-up: scale not given: the % may be the effect or the level left

EC50 [7]	Compound	IC50 [4]	inhibition at 100 µM [6]	Activity [8]	Activity [9]	Activity [10]	also measured
	CCO[C@@]1(c2ccc(Br)cc2)Sc2ccccc2-n2c1noc2=O	5.19 µM					Activity [1]: 2%; inhibition at 50 µM [2]: 60%; Activity [3]: 25%; Activity [5]: 10%
0.04 µM	CCOC1(c2ccc(Br)cc2)SC=C(C)n2c1noc2=O (racemic)		3%	78%	19%	5%	Ratio EC50 [11]: 20
0.026 µM	CC1=CS[C@](OCC(F)(F)F)(c2ccc(Br)cc2)c2noc(=O)n21	12.2 µM	98%		9%		Activity [3]: 82%; Activity [12]: 40%
0.034 µM	CC1=CS[C@@](OCC(F)(F)F)(c2ccc(Br)cc2)c2noc(=O)n21	19 µM	85%	82%	12%	16%	
0.79 µM	COc1ccc([C@@H]2Sc3ccccc3N(CCN(C)C)C(=O)[C@@H]2OC(C)=O)cc1 [DILTIAZEM]	0.11 µM			88%		Activity [13]: 78%; IC50 [14]: 2.6 µM; inhibition at 1 µM [15]: 98%; EC30 [16]: 0.07 µM; Activity [17]: 94%; Ratio IC50 [18]: 24
0.013 µM	CCOC1(c2ccc(Br)cc2)Sc2ccccc2-n2c1noc2=O (racemic)	8.32 µM	87%	81%	4%	7%	IC50 [14]: 0.013 µM; Ratio IC50 [19]: 640
0.07 µM	CCO[C@]1(c2ccc(Br)cc2)SC=C(C)n2c1noc2=O			77%	11%		Activity [20]: 16%
0.022 µM	CC1=CSC(OCC(F)(F)F)(c2ccc(Br)cc2)c2noc(=O)n21 (racemic)	25.9 µM	73%		28%		Activity [3]: 76%; Activity [20]: 4%; Ratio EC50 [11]: 36
0.006 µM	O=c1onc2n1-c1ccccc1SC2(OCC(F)(F)F)c1ccc(Br)cc1 (racemic)	11.8 µM	54%	75%	21%	7%	Selectivity ratio [21]: 1965
0.0098 µM	O=c1onc2n1-c1ccccc1S[C@]2(OCC(F)(F)F)c1ccc(Br)cc1	4.58 µM	54%	77%	1%		Activity [20]: 24%
0.011 µM	O=c1onc2n1-c1ccccc1S[C@@]2(OCC(F)(F)F)c1ccc(Br)cc1		47%				Activity [22]: 25%; Activity [23]: 52%; Activity [24]: 28%
	CCO[C@@]1(c2ccc(Br)cc2)SC=C(C)n2c1noc2=O			58%	7%		Activity [12]: 15%
0.0093 µM	CCO[C@]1(c2ccc(Br)cc2)Sc2ccccc2-n2c1noc2=O	0.02 µM					Activity [1]: 8%; Activity [23]: 64%; inhibition at 5 µM [25]: 78%; Activity [26]: 20%
